Measurements reported in patent US9023789B2, “Amylin analogs and pharmaceutical compositions thereof” (Novo Nordisk A/S, priority 2012, dated 2015).
Numbered stars: 1 amine (or outer) side, 2 acyl side, 3 side chain; on linkers, the order of the positions; unused ones are H or OH. Bridge positions count the residues as written; N and C are the ends. Side chains are listed from the residue outwards. Peptide text beside a SMILES is read from it. * marks the point of attachment. C20 diacid = O=C(O)CCCCCCCCCCCCCCCCCCC(=O)*; γGlu = O=C(O)[C@H](CCC(=O)[*:2])N[*:1]

Tests used:
[1] = target: T1, human calcitonin (a) receptor in BHK570 cells (Homo sapiens, UniProt P30988); test: ASSAY (II)a functional assay, human calcitonin receptor (CRE luciferase); assay type: cell-based; details: read-out: hCTR funct. EC50
T1 construct: expressed in transfected cells
T1 sequence (P30988 25-474): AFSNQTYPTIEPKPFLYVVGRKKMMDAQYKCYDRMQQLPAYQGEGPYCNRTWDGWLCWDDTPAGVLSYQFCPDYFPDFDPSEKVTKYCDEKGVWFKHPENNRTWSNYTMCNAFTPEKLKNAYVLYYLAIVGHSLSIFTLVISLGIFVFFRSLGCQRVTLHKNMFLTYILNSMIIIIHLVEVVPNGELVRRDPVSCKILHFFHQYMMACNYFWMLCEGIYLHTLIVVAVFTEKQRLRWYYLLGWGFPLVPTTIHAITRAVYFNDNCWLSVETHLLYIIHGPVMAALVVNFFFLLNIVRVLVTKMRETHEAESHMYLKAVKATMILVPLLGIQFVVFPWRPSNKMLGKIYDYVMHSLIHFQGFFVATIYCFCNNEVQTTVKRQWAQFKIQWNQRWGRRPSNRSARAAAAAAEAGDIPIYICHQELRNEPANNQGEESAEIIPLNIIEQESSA
In short: (§1)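 Readout is luminescence from a cAMP-responsive CRE-luc reporter, developed with LucLite for 30 min at room temperature. Cells were treated for 3 h at 37 °C in 10% FBS/DMEM buffered with 10 mM Hepes (pH 7.4).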

Male Wistar rats = test: ASSAY (XII) effect from single subcutaneous administration on plasma calcium in rats; assay type: in vivo, rat; details: for Plasma calcium red (%) 0-12 h (maximal): single s.c., compared to vehicle; for suppression of plasma calcium level relative to vehicle: monitored over 24 hours
In short: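 Male Wistar rats (~250 g), groups of five, received a single subcutaneous dose at time 0. Blood drawn at −15 min, 1, 2, 4, 7, 12 and 24 h; total calcium measured in heparin plasma, reported as mean±SEM.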

[2] = target: T2, human amylin 3(a) receptor (human calcitonin receptor + RAMP-3) in BHK570 cells (Homo sapiens, UniProt O60896+P30988); test: ASSAY (II)a functional assay, human amylin receptor (CRE luciferase); assay type: cell-based
T2 construct: expressed in transfected cells
T2 sequence (O60896 24-148, one chain of several): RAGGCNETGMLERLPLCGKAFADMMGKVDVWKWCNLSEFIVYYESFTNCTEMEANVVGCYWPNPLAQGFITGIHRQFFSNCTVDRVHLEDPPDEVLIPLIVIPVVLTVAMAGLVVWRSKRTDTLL
In short: as §1

[3] = ASSAY (X) pK, determination of T½ in rat; assay type: in vivo; details: male, Sprague Dawley, plasma, iv, 20 nmol/kg
[4] = target: T3, human calcitonin receptor (Homo sapiens, UniProt P30988); test: ASSAY (VII) binding to the human calcitonin receptor (SPA, 125I-Calcitonin); details: read-out: hCTR bind IC50;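 also: cell membranes (35 ng/µL) combined with SPA beads in 40 µL of pH 7.4 Hepes buffer, 384-well format, signal counted on a TopCounter instrument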
T3 construct: expressed in transfected cells
T3 sequence (P30988 25-474): T1 sequence (P30988 25-474)

Male Sprague-Dawley rats = test: ASSAY (XI) single subcutaneous administration, food intake monitored for 48 hours in rats; assay type: in vivo, rat; details: for Food intake red (%) 0-24 h / Food intake red (%) 24-48 h: single s.c., compared to vehicle; for food intake monitored over 48 hours: single subcutaneous administration, versus vehicle
In short: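 Male Sprague-Dawley rats from Taconic Europe, weighing about 250 g on the test day, were singly housed in an online food intake monitoring system (Ellegaard MBRose, Denmark). Before the study they were acclimatized to a reversed light cycle, with lights on from 10 PM to 10 AM. Each rat then received one subcutaneous dose of the analogue, and data are reported as mean±SEM.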

[5] = ASSAY (IX) pK, determination of T½ in mini-pig; assay type: in vivo; details: male, Göttingen, minipig, plasma, iv, 2 nmol/kg
[6] = single subcutaneous administration, increasing doses (all doses tested)
[7] = hCTR funct. EC50 divided by hAmylin-R funct. EC50
[8] = hCTR funct. EC50 over hAmylin-R funct. EC50
[9] = human functional selectivity: hCTR funct. EC50 / hAmylin-R funct. EC50

Row | SMILES | EC50 [1] [nM] | Plasma calcium red (%) 0-12 h (maximal) (Male Wistar rats; 30 nmol/kg) [%] | suppression of plasma calcium level relative to vehicle (Male Wistar rats; [6]) | Ratio hCT/hAmylin funct. [2, 7] | Ratio hCT/hAmylin funct. [2, 8] | EC50 ([2]; human amylin receptor functional potency, assay (II), read-out: hAmylin-R funct. EC50) [nM] | Ratio hCT/hAmylin funct. [2, 9] | half-life [3] [h] | IC50 [4] [nM] | Food intake red (%) 0-24 h (Male Sprague-Dawley rats; 30 nmol/kg) [%] | Food intake red (%) 24-48 h (Male Sprague-Dawley rats; 30 nmol/kg) [%] | food intake monitored over 48 hours (Male Sprague-Dawley rats; 30 nmol/kg) | half-life [5] [h] | Plasma calcium red (%) 0-12 h (maximal) (Male Wistar rats; 3 nmol/kg) [%] | suppression of plasma calcium level relative to vehicle (Male Wistar rats; single subcutaneous 3 nmol/kg) | suppression of plasma calcium level relative to vehicle (Male Wistar rats; single subcutaneous 30 nmol/kg) | suppression of plasma calcium level relative to vehicle (Male Wistar rats; single subcutaneous 100 nmol/kg) | suppression of plasma calcium level relative to vehicle (Male Wistar rats; single subcutaneous 300 nmol/kg) | Food intake red (%) 0-24 h (Male Sprague-Dawley rats; 3 nmol/kg) [%] | Food intake red (%) 24-48 h (Male Sprague-Dawley rats; 3 nmol/kg) [%]
1 | CC[C@H](C)[C@H](NC(=O)[C@H](C)NC(=O)CNC(=O)[C@H](Cc1ccccc1)NC(=O)[C@H](CC(N)=O)NC(=O)[C@@H]1CCCN1C(=O)[C@H](CO)NC(=O)[C@H](CO)NC(=O)[C@H](Cc1c[nH]cn1)NC(=O)[C@H](CCCNC(=N)N)NC(=O)[C@H](CC(C)C)NC(=O)[C@H](Cc1ccccc1)NC(=O)[C@H](CC(N)=O)NC(=O)[C@H](C)NC(=O)[C@H](CC(C)C)NC(=O)[C@H](CCCNC(=N)N)NC(=O)[C@H](CCC(N)=O)NC(=O)[C@@H](NC(=O)[C@H](C)NC(=O)[C@@H]1CSSC[C@H](NC(=O)[C@@H](N)CCCCNC(=O)CC[C@H](NC(=O)CC[C@H](NC(=O)CCCCCCCCCCCCCCCCCCC(=O)O)C(=O)O)C(=O)O)C(=O)N[C@@H](CC(N)=O)C(=O)N[C@@H]([C@@H](C)O)C(=O)N[C@@H](C)C(=O)N[C@@H]([C@@H](C)O)C(=O)N1)[C@@H](C)O)C(=O)N1CCC[C@H]1C(=O)N[C@@H](CO)C(=O)N[C@@H](CO)C(=O)N[C@H](C(=O)N[C@@H](CC(N)=O)C(=O)N[C@H](C(=O)NCC(=O)N[C@@H](Cc1c[nH]cn1)C(=O)N[C@@H](CC(N)=O)C(=O)N[C@H](C(=O)N[C@@H](Cc1ccc(O)cc1)C(N)=O)[C@@H](C)O)C(C)C)[C@@H](C)O [Example 86] (H-K([γGlu-γGlu-C20 diacid])CNTATCATQRLANFLRHSSPNFGAIPSSTNVGHNTY-NH2; disulfide 2-7) | 19.2 | 0 | None of the doses trigger a notable suppression of the calcium level | 64.4 | 64.4 | 0.298 | 64.4 | 20 | 133 | 48 | 26 | reduces food intake | 104 |  |  |  |  |  |  | 
2 | CC[C@H](C)[C@H](NC(=O)[C@H](C)NC(=O)CNC(=O)[C@H](Cc1ccccc1)NC(=O)[C@H](CC(N)=O)NC(=O)[C@@H]1CCCN1C(=O)[C@H](CO)NC(=O)[C@H](CO)NC(=O)[C@H](Cc1c[nH]cn1)NC(=O)[C@H](CCCNC(=N)N)NC(=O)[C@H](CC(C)C)NC(=O)[C@H](Cc1ccccc1)NC(=O)[C@H](CCC(=O)O)NC(=O)[C@H](C)NC(=O)[C@H](CC(C)C)NC(=O)[C@H](CCCNC(=N)N)NC(=O)[C@H](CCC(N)=O)NC(=O)[C@@H](NC(=O)[C@H](C)NC(=O)[C@@H]1CSSC[C@H](NC(=O)[C@@H](N)CCCCNC(=O)CC[C@H](NC(=O)CCCCCCCCCCCCCCCCCCC(=O)O)C(=O)O)C(=O)N[C@@H](CC(N)=O)C(=O)N[C@@H]([C@@H](C)O)C(=O)N[C@@H](C)C(=O)N[C@@H]([C@@H](C)O)C(=O)N1)[C@@H](C)O)C(=O)N1CCC[C@H]1C(=O)N[C@@H](CO)C(=O)N[C@@H](CO)C(=O)N[C@H](C(=O)N[C@@H](CC(N)=O)C(=O)N[C@H](C(=O)NCC(=O)N1CCC[C@H]1C(=O)N[C@@H](CCC(=O)O)C(=O)N[C@H](C(=O)N[C@@H](Cc1ccc(O)cc1)C(N)=O)[C@@H](C)O)C(C)C)[C@@H](C)O [Example 109] (H-K([γGlu-C20 diacid])CNTATCATQRLAEFLRHSSPNFGAIPSSTNVGPETY-NH2; disulfide 2-7 (inferred); N-terminus assumed) |  | 27 |  | 5.2 | 5.2 |  | 5.2 | 17 |  | 89 | 91 | reduces food intake | 95 | 7 | does not trigger a notable suppression of the calcium level | induces a minor suppression of the calcium level | induces a more pronounced suppression of the calcium level | induces a more pronounced suppression of the calcium level | 57 | 50
3 | CC[C@H](C)[C@H](NC(=O)[C@H](C)NC(=O)CNC(=O)[C@H](Cc1ccccc1)NC(=O)[C@H](CC(N)=O)NC(=O)[C@@H]1CCCN1C(=O)[C@H](CO)NC(=O)[C@H](CO)NC(=O)[C@H](Cc1c[nH]cn1)NC(=O)[C@H](CCCNC(=N)N)NC(=O)[C@H](CC(C)C)NC(=O)[C@H](Cc1ccccc1)NC(=O)[C@H](CC(N)=O)NC(=O)[C@H](C)NC(=O)[C@H](CC(C)C)NC(=O)[C@H](CCCNC(=N)N)NC(=O)[C@H](CCC(N)=O)NC(=O)[C@@H](NC(=O)[C@H](C)NC(=O)[C@@H]1CSSC[C@H](NC(=O)[C@@H](N)CCCCNC(=O)CC[C@H](NC(=O)CCCCCCCCCCCCCCCCCCC(=O)O)C(=O)O)C(=O)N[C@@H](CC(N)=O)C(=O)N[C@@H]([C@@H](C)O)C(=O)N[C@@H](C)C(=O)N[C@@H]([C@@H](C)O)C(=O)N1)[C@@H](C)O)C(=O)N1CCC[C@H]1C(=O)N[C@@H](CO)C(=O)N[C@@H](CO)C(=O)N[C@H](C(=O)N[C@@H](CC(N)=O)C(=O)N[C@H](C(=O)NCC(=O)N[C@@H](Cc1c[nH]cn1)C(=O)N[C@@H](CC(N)=O)C(=O)N[C@H](C(=O)N[C@@H](Cc1ccc(O)cc1)C(N)=O)[C@@H](C)O)C(C)C)[C@@H](C)O [Example 77] |  |  |  | 37.3 | 37.3 |  | 37.3 | 18 |  |  |  |  | 81 |  |  |  |  |  |  | 
4 | CC[C@H](C)[C@H](NC(=O)[C@H](C)NC(=O)CNC(=O)[C@H](Cc1ccccc1)NC(=O)[C@H](CC(N)=O)NC(=O)[C@@H]1CCCN1C(=O)[C@H](CO)NC(=O)[C@H](CO)NC(=O)[C@H](Cc1c[nH]cn1)NC(=O)[C@H](CCCNC(=N)N)NC(=O)[C@H](CC(C)C)NC(=O)[C@H](Cc1ccccc1)NC(=O)[C@H](CC(=O)O)NC(=O)[C@H](C)NC(=O)[C@H](CC(C)C)NC(=O)[C@H](CCCNC(=N)N)NC(=O)[C@H](CCC(N)=O)NC(=O)[C@@H](NC(=O)[C@H](C)NC(=O)[C@@H]1CSSC[C@H](NC(=O)[C@@H](N)CCCCNC(=O)CC[C@H](NC(=O)CC[C@H](NC(=O)CCCCCCCCCCCCCCCCCCC(=O)O)C(=O)O)C(=O)O)C(=O)N[C@@H](CC(N)=O)C(=O)N[C@@H]([C@@H](C)O)C(=O)N[C@@H](C)C(=O)N[C@@H]([C@@H](C)O)C(=O)N1)[C@@H](C)O)C(=O)N1CCC[C@H]1C(=O)N[C@@H](CO)C(=O)N[C@@H](CO)C(=O)N[C@H](C(=O)N[C@@H](CC(N)=O)C(=O)N[C@H](C(=O)NCC(=O)N[C@@H](CO)C(=O)N[C@@H](CCCNC(=N)N)C(=O)N[C@H](C(=O)N[C@@H](Cc1ccc(O)cc1)C(N)=O)[C@@H](C)O)C(C)C)[C@@H](C)O [Example 52, N-ε-1-{(S)-4-carboxy-4-[(S)-4-carboxy-4-(19-carboxynonadecanoylamino)butyrylamino]butyryl}-[Asp14,Arg17,Pro21,Pro27,Arg35]-human amylin] |  | 12 | None of the doses trigger a notable suppression of the calcium level | 41.4 | 41.4 |  | 41.4 | 21 |  | 63 | 50 | reduces food intake | 99.5 |  |  |  |  |  | 25 | 15
